This is an account of results in PubChem BioAssay (NCI).

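In this assay, cells in 96-well plates receive the compound at five concentrations for 48 hours. Endpoints are linearly interpolated between the surrounding concentrations. At the GI50, growth is halved. TGI: concentration producing complete growth inhibition.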

The first test deals with NCI-H226 lung. Nature of the test: DTP human tumour cell line panel, 48 h.
For the molecule `O=C(/C=C/c1cc(CN2CCOCC2)c(O)c2ncccc12)c1cc(CN2CCOCC2)c(O)c2ncccc12`, the GI50 is 0.43 µM and the TGI was found to be 41.8 µM.

Turning to `[Au+].[Au+].[Au+].[c-]1nccn1Cc1ccccc1.[c-]1nccn1Cc1ccccc1.[c-]1nccn1Cc1ccccc1`, the GI50 is 14.6 µM and the TGI was 71.4 µM.

Take `Cn1cc(C2=C(c3cn(CCCCCN)c4ccccc34)C(=O)NC2=O)c2ccccc21`: the GI50 is over 25 µM and the TGI was over 25 µM.

For the molecule `C=C1C(=O)O[C@H]2[C@H]1CC/C(COC(=O)c1ccc(Cl)nc1)=C\CC[C@@]1(C)O[C@@H]21`, the GI50 was 2.66 µM and the TGI was 6.78 µM.

With `Cc1cc[c-]cc1.Fc1c[c-]c(-c2ccccn2)c(F)c1.[Pt+2].c1ccc(P(C[PH+](c2ccccc2)c2ccccc2)c2ccccc2)cc1`, the GI50 was 2.93 µM and the TGI amounted to 11.6 µM.

In the case of `COc1cc2ncn(-c3cc(OCCc4ccccc4)c(C(N)=O)s3)c2cc1OC`, the GI50 is over 25 µM and the TGI was over 25 µM.

As for `CCCCC1(CN2CCOCC2)S/C(=N/c2nc(CC(=O)OCC)cs2)NC1=O` (stereo not given), the GI50 was 38.6 µM and the total growth inhibition concentration (TGI) is over 100 µM.

Regarding `O=C(CSC(c1ccccc1)c1ccccc1)N/N=C/c1ccc(Cl)cc1Cl`, the GI50 is 32.6 µM and the TGI is over 100 µM.

In another test the test system is RPMI-8226 leukemia. Nature of the test: DTP human tumour cell line panel, 48 h.
Take `O=C(/C=C/c1cc(CN2CCOCC2)c(O)c2ncccc12)c1cc(CN2CCOCC2)c(O)c2ncccc12`: the concentration for 50% growth inhibition (GI50) was 0.0222 µM and the TGI is over 100 µM.

Take `[Au+].[Au+].[Au+].[c-]1nccn1Cc1ccccc1.[c-]1nccn1Cc1ccccc1.[c-]1nccn1Cc1ccccc1`: the GI50 was 3.9 µM and the TGI was over 100 µM.

As for `Cn1cc(C2=C(c3cn(CCCCCN)c4ccccc34)C(=O)NC2=O)c2ccccc21`, the GI50 was 9.24 µM and the TGI is over 25 µM.

Turning to `C=C1C(=O)O[C@H]2[C@H]1CC/C(COC(=O)c1ccc(Cl)nc1)=C\CC[C@@]1(C)O[C@@H]21`, the GI50 was 1.58 µM and the TGI came out at 4.87 µM.

On to `Cc1cc[c-]cc1.Fc1c[c-]c(-c2ccccn2)c(F)c1.[Pt+2].c1ccc(P(C[PH+](c2ccccc2)c2ccccc2)c2ccccc2)cc1`, for which the GI50 is 0.719 µM and the TGI is 4.38 µM.

Consider `COc1cc2ncn(-c3cc(OCCc4ccccc4)c(C(N)=O)s3)c2cc1OC`, for which the GI50 is over 25 µM and the TGI is over 25 µM.

In the case of `CCCCC1(CN2CCOCC2)S/C(=N/c2nc(CC(=O)OCC)cs2)NC1=O` (stereo not given), the GI50 is 25.6 µM and the TGI came to 80.6 µM.

For `O=C(CSC(c1ccccc1)c1ccccc1)N/N=C/c1ccc(Cl)cc1Cl`, the GI50 was 15.6 µM and the TGI came out at 41.8 µM.

For the next test, the system named is SF-539 CNS. Nature of the test: DTP human tumour cell line panel, 48 h.
As to `O=C(/C=C/c1cc(CN2CCOCC2)c(O)c2ncccc12)c1cc(CN2CCOCC2)c(O)c2ncccc12`, the GI50 was 0.0433 µM and the TGI was 23.6 µM.

Turning to `[Au+].[Au+].[Au+].[c-]1nccn1Cc1ccccc1.[c-]1nccn1Cc1ccccc1.[c-]1nccn1Cc1ccccc1`, the GI50 was 2.96 µM and the TGI turned out to be 9.15 µM.

With `Cn1cc(C2=C(c3cn(CCCCCN)c4ccccc34)C(=O)NC2=O)c2ccccc21`, the GI50 is 6.42 µM and the TGI is 21.6 µM.

In the case of `C=C1C(=O)O[C@H]2[C@H]1CC/C(COC(=O)c1ccc(Cl)nc1)=C\CC[C@@]1(C)O[C@@H]21`, the GI50 was 1.61 µM and the TGI came out at 3.61 µM.

`Cc1cc[c-]cc1.Fc1c[c-]c(-c2ccccn2)c(F)c1.[Pt+2].c1ccc(P(C[PH+](c2ccccc2)c2ccccc2)c2ccccc2)cc1`: the GI50 was 3.34 µM and the TGI turned out to be 12.4 µM.

On to `COc1cc2ncn(-c3cc(OCCc4ccccc4)c(C(N)=O)s3)c2cc1OC`, for which the GI50 is over 25 µM and the TGI was over 25 µM.

Turning to `CCCCC1(CN2CCOCC2)S/C(=N/c2nc(CC(=O)OCC)cs2)NC1=O` (stereo not given), the GI50 was 29 µM and the TGI is 89.9 µM.

Take `O=C(CSC(c1ccccc1)c1ccccc1)N/N=C/c1ccc(Cl)cc1Cl`: the GI50 is 57.7 µM and the TGI is over 100 µM.

Another test deals with SK-MEL-2 melanoma. Nature of the test: DTP human tumour cell line panel, 48 h.
In the case of `O=C(/C=C/c1cc(CN2CCOCC2)c(O)c2ncccc12)c1cc(CN2CCOCC2)c(O)c2ncccc12`, the GI50 is 0.0637 µM and the TGI amounted to 4.99 µM.

For the molecule `[Au+].[Au+].[Au+].[c-]1nccn1Cc1ccccc1.[c-]1nccn1Cc1ccccc1.[c-]1nccn1Cc1ccccc1`, the GI50 is 1.98 µM and the TGI turned out to be 3.9 µM.

As for `Cn1cc(C2=C(c3cn(CCCCCN)c4ccccc34)C(=O)NC2=O)c2ccccc21`, the GI50 is 7.1 µM and the TGI was 18.2 µM.

For `C=C1C(=O)O[C@H]2[C@H]1CC/C(COC(=O)c1ccc(Cl)nc1)=C\CC[C@@]1(C)O[C@@H]21`, the GI50 is 2.06 µM and the TGI was 5.51 µM.

Consider `Cc1cc[c-]cc1.Fc1c[c-]c(-c2ccccn2)c(F)c1.[Pt+2].c1ccc(P(C[PH+](c2ccccc2)c2ccccc2)c2ccccc2)cc1`, for which the GI50 was 2.36 µM and the TGI worked out at 6.61 µM.

Regarding `COc1cc2ncn(-c3cc(OCCc4ccccc4)c(C(N)=O)s3)c2cc1OC`, the GI50 was over 25 µM and the TGI is over 25 µM.

For `CCCCC1(CN2CCOCC2)S/C(=N/c2nc(CC(=O)OCC)cs2)NC1=O` (stereo not given), the GI50 is 29.7 µM and the TGI turned out to be 89.2 µM.

With `O=C(CSC(c1ccccc1)c1ccccc1)N/N=C/c1ccc(Cl)cc1Cl`, the GI50 was 18.4 µM and the TGI worked out at 55.8 µM.

A further test deals with UACC-257 melanoma. Nature of the test: DTP human tumour cell line panel, 48 h.
Take `O=C(/C=C/c1cc(CN2CCOCC2)c(O)c2ncccc12)c1cc(CN2CCOCC2)c(O)c2ncccc12`: the GI50 is 0.202 µM and the TGI amounted to 8.88 µM.

On to `[Au+].[Au+].[Au+].[c-]1nccn1Cc1ccccc1.[c-]1nccn1Cc1ccccc1.[c-]1nccn1Cc1ccccc1`, for which the GI50 was 3.71 µM and the TGI came out at 7.5 µM.

As to `Cn1cc(C2=C(c3cn(CCCCCN)c4ccccc34)C(=O)NC2=O)c2ccccc21`, the GI50 is 23.1 µM and the TGI was over 25 µM.

As to `C=C1C(=O)O[C@H]2[C@H]1CC/C(COC(=O)c1ccc(Cl)nc1)=C\CC[C@@]1(C)O[C@@H]21`, the GI50 was 1.83 µM and the TGI stood at 4.17 µM.

On to `Cc1cc[c-]cc1.Fc1c[c-]c(-c2ccccn2)c(F)c1.[Pt+2].c1ccc(P(C[PH+](c2ccccc2)c2ccccc2)c2ccccc2)cc1`, for which the GI50 is 2.37 µM and the TGI worked out at 8.15 µM.

As for `COc1cc2ncn(-c3cc(OCCc4ccccc4)c(C(N)=O)s3)c2cc1OC`, the GI50 was over 25 µM and the TGI is over 25 µM.

Regarding `CCCCC1(CN2CCOCC2)S/C(=N/c2nc(CC(=O)OCC)cs2)NC1=O` (stereo not given), the GI50 was 40.4 µM and the TGI was over 100 µM.

Take `O=C(CSC(c1ccccc1)c1ccccc1)N/N=C/c1ccc(Cl)cc1Cl`: the GI50 is 23.1 µM and the TGI was determined as 68.3 µM.

In general, GI50 refers to the concentration at which growth is held to half of that of the control. The TGI is the concentration giving total growth inhibition.
